Results as given in patent US9750753B1, “Method of treating diseases associated with LRRK2 mutation using hexachlorophene” (University of South Florida, priority 2014, dated 2017).
“Also recorded” adds a separate entry of the source.

Legend:
[1] = tested on: N9 cells
[2] = dose of about 10 mg/kg, transgenic TDP43 mouse model; cited from earlier work
[3] = tested on: primary neuronal cultures; settings: cited from earlier work
[4] = tested on: rats; settings: oral; cited from earlier work
[5] = tested on: HeLa cells
[6] = tested on: Wnt-β-catenin signaling pathway; settings: B lymphoma cells; cited from earlier work
[7] = molecular target: T1, wild-type human LRRK2 protein (Homo sapiens, UniProt Q5S007); experiment: Western blot of overexpressed wild-type LRRK2 in transfected HeLa cells; type: cell-based
T1 construct: expressed in transfected cells; host or cells: HeLa
T1 sequence (Q5S007 whole entry): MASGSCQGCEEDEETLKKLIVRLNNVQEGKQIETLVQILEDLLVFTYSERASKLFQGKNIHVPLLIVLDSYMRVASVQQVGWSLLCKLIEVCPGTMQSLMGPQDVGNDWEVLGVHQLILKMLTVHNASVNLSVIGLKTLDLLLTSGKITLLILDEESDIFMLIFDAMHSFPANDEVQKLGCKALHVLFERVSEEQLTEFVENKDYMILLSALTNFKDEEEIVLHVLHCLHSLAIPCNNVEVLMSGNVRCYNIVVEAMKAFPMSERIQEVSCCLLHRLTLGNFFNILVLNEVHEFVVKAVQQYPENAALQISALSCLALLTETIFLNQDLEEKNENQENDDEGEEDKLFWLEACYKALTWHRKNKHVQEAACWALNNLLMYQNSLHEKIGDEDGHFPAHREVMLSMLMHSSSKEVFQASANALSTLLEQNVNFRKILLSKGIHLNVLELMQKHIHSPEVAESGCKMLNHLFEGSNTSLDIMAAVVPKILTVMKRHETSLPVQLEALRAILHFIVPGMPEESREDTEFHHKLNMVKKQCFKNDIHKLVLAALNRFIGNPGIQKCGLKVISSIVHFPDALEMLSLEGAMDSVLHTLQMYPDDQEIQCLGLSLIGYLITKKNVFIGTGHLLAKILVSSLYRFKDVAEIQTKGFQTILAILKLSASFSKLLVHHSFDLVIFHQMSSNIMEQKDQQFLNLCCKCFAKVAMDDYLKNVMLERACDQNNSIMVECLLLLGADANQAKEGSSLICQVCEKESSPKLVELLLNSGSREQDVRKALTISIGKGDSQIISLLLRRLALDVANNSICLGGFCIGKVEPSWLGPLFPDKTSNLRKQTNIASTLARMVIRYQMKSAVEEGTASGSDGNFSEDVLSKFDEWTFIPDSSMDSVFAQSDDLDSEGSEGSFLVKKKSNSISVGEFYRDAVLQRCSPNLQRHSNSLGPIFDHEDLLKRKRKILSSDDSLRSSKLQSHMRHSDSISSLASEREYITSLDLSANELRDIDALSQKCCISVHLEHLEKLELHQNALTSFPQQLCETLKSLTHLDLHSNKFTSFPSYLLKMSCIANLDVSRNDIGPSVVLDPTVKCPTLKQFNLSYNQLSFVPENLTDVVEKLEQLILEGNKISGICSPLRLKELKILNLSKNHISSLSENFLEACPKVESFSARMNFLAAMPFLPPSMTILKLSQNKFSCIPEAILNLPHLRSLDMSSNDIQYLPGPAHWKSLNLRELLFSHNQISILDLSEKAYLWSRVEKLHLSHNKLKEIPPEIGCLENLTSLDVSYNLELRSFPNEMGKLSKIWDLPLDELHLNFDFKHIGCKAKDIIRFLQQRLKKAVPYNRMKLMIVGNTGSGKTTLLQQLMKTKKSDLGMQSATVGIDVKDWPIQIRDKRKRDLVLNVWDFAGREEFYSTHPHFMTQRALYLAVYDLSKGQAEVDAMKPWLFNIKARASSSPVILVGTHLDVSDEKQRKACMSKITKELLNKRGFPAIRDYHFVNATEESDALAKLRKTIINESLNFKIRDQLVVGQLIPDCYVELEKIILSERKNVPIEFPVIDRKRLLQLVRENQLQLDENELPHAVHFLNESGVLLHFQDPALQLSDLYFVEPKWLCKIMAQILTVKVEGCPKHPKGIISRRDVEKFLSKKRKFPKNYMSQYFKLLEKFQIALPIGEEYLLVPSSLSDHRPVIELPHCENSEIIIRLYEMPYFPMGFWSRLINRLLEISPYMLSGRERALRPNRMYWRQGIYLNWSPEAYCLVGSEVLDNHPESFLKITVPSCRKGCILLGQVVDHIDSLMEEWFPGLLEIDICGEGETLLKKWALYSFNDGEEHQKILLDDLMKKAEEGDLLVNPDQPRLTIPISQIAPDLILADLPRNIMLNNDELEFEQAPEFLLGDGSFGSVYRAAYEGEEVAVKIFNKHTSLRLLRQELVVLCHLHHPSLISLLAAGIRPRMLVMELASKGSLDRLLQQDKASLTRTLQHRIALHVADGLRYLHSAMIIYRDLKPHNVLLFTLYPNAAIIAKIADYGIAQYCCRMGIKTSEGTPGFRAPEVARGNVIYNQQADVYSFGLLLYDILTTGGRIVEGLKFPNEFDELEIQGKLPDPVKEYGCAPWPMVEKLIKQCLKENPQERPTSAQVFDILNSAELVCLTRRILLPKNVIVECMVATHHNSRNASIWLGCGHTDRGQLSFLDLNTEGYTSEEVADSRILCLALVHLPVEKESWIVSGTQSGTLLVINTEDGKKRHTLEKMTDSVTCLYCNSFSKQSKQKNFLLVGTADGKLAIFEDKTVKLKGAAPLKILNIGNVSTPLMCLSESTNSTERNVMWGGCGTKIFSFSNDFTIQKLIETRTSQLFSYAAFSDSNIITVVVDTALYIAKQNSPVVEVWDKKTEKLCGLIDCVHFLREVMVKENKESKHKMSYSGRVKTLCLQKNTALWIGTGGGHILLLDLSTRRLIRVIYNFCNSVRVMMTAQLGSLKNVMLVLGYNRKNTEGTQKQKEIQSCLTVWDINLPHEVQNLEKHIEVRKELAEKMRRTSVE
Protocol: (§1) HeLa cells overexpressing wild-type or mutant human LRRK2 protein and N9 cells expressing endogenous LRRK2 protein were treated with hexachlorophene (labeled as B10 in FIGS. 1 and 2) for 24 hours.
(§2) HeLa cells were grown in DMEM with 10% FBS and 1% penicillin and streptomycin. Cells were transfected with constructs for LRRK2 and the G2019S mutant using Lipofectamine 2000. HeLa cells were used due to the ease of transfection with LRRK2 and its mutants.
(§3) Samples were harvested by using MPER mammalian extraction buffer (Pierce, Thermo Scientific) containing protease and phosphatase inhibitors. After protein estimation using a BCA kit (Pierce, Thermo Scientific), equal amounts of protein from each sample was subjected to gel electrophoresis and western blotting. Phospho (p-) and Total (T-) LRRK2 (abcam) and GAPDH (Meridian Life Sciences) antibodies were used to detect phospho and total LRRK2 and GAPDH, respectively. Analysis of changes in the LRRK2 level was performed using Scion Image software.

[8] = molecular target: amyloid beta (Aβ) (Homo sapiens, UniProt P05067); settings: cited from earlier work
amyloid beta (Aβ), sequence (P05067 672-713 limits assumed): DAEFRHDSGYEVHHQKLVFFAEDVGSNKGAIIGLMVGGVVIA

[9] = tested on: synuclein; experiment: Synuclein level in HeLa cells (selectivity control); type: cell-based; settings: 1 μM
[10] = molecular target: T2, mutant (G2019S) LRRK2 (Homo sapiens, UniProt Q5S007, G2019S); experiment: Western blot of overexpressed mutant (G2019S) LRRK2 in transfected HeLa cells; type: cell-based; settings: 1 μM, 24 hours, vs vehicle DMSO control
T2 construct: expressed in transfected cells; host or cells: HeLa
T2 sequence (Q5S007 whole entry G2019S): as the sequence (Q5S007 whole entry) above, with G2019S counted along it
Protocol: as §1, §2, §3

[11] = molecular target: T3, endogenous LRRK2 protein (Mus musculus, UniProt Q5S006); experiment: Western blot of endogenous LRRK2 in N9 cells; type: cell-based; settings: 1 μM, 24 hours
T3 construct: N9 cells were used because they express high levels of endogenous LRRK2; endogenous in cells; host or cells: N9
T3 sequence (Q5S006 whole entry): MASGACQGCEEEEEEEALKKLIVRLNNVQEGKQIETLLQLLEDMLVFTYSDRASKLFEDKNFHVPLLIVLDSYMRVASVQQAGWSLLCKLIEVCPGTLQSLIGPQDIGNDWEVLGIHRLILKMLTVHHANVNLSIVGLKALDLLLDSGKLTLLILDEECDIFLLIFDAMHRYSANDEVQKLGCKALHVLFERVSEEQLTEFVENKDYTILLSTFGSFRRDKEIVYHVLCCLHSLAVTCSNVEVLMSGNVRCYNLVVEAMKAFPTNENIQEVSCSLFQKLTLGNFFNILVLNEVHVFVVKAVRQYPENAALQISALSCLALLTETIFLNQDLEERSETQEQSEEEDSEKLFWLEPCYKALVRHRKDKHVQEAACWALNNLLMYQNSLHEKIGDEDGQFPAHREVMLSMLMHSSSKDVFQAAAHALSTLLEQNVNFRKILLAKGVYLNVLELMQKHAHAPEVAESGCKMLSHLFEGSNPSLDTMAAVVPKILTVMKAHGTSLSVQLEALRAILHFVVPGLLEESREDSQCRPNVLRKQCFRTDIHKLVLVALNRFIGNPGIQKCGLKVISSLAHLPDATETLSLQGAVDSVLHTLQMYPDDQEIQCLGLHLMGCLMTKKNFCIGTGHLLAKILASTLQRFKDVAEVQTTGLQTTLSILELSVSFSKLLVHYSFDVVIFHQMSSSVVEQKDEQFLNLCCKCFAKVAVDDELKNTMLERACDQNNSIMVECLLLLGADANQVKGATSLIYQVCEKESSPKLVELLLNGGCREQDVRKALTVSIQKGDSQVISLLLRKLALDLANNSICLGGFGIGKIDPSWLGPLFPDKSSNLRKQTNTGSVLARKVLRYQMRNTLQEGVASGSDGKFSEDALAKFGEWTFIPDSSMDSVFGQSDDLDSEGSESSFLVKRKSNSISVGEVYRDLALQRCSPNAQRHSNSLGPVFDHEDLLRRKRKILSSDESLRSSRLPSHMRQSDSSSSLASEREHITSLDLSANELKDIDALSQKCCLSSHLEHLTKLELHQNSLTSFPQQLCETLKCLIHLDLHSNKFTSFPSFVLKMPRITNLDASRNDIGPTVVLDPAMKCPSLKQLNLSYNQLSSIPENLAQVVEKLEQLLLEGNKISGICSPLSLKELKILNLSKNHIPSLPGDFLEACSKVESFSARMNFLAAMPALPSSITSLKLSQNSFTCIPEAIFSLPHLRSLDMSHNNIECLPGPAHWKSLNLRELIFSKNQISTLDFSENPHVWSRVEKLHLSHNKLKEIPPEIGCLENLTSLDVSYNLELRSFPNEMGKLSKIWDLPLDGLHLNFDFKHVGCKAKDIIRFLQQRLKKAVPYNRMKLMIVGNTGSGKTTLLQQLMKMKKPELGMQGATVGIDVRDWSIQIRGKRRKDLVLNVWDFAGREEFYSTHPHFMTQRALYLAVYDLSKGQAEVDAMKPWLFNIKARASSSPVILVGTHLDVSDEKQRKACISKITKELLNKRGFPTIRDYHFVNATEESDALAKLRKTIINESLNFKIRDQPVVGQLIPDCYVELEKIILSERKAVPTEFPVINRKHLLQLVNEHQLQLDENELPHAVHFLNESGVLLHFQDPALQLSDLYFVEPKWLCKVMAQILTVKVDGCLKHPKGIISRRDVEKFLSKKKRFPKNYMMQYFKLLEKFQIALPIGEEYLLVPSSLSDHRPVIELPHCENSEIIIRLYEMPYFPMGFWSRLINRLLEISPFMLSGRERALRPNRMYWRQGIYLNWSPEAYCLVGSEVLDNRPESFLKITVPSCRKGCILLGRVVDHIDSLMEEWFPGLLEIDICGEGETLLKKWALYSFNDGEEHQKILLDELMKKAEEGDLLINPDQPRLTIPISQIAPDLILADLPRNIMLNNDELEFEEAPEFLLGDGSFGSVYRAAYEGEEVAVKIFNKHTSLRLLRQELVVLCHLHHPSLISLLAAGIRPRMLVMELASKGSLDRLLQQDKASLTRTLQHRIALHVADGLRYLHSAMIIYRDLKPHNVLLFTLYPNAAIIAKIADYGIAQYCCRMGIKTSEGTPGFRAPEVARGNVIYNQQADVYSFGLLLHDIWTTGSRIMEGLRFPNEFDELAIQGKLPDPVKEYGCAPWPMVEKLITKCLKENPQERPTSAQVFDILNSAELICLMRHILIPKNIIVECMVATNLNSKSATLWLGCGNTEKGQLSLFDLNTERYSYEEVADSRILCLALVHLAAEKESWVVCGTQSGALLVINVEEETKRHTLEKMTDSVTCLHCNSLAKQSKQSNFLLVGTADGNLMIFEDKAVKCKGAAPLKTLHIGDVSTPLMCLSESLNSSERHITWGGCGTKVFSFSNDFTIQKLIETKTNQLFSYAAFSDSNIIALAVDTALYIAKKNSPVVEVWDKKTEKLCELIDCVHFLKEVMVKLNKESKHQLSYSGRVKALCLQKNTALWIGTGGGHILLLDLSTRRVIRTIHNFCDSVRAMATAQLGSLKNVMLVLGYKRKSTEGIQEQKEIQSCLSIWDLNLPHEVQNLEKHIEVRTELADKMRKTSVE
Protocol: as §1
N9 cells were grown in DMEM supplemented with 10% FBS, 1% penicillin and streptomycin, and 2% L-glutamine. N9 cells were used because they express high levels of endogenous LRRK2. They are very difficult to transfect and were only used to study the effect of hexachlorophene on wild-type LRRK2.
as §3

[12] = tested on: LRRK2; settings: cited from earlier work
[13] = tested on: rats; settings: cited from earlier work; for protection from toxicity induced by B10: pre-treatment prior to administration of B10, rats

SMILES: Oc1c(Cl)cc(Cl)c(Cl)c1Cc1c(O)c(Cl)cc(Cl)c1Cl [hexachlorophene, Hexachlorophene]
- cell death (LDH release) [1]: minimal amounts of cell death
- brain permeability [2]: 50%
- protection from Aβ-induced toxicity [3]: protect
- LD50 [4]: 66 mg/kg
- cell death (LDH release) [5]: minimal amounts of cell death
- effect on Wnt-β-catenin signaling pathway [6]: inhibit
- overexpressed wild-type LRRK2 level ([7]; HeLa cells, 1 μM, 24 hours, vs vehicle DMSO control): selectively reduces; also recorded: decreased
- period of maximal effect on LRRK2 levels ([7]; cell line not stated (HeLa and N9 cells used)): 24 h
- effect on Aβ fibril formation [8]: inhibit
- effect on synuclein [9]: does not affect
- overexpressed mutant (G2019S) LRRK2 level [10]: selectively reduces; also recorded: decreased
- endogenous pLRRK2 level [11]: reduces
- expression of endogenous LRRK2 [11]: reduces

SMILES: CC1=C(CO)C(=O)O[C@@H]([C@@H](C)[C@H]2CC[C@H]3[C@@H]4C[C@H]5O[C@]56[C@@H](O)C=CC(=O)[C@]6(C)[C@H]4CC[C@]23C)C1 [withaferin A]
- clearance of LRRK2 ([12]; WA in the presence of celastrol, additive manner): enhanced
- LRRK2 levels in cells ([12]; compound alone, dose and time dependent manner): reduced

SMILES: C[N+](C)(C)C[C@H](O)CC(=O)[O-] [L-carnitine]
- protection from toxicity induced by B10 [13]: protected

SMILES: CCOc1ccc2c(c1)C(C)=CC(C)(C)N2 [ethoxyquin]
- protection from toxicity induced by B10 [13]: protects

SMILES: CCCC(C(=O)OCCN(CC)CC)(c1ccccc1)c1ccccc1.Cl [SKF-525A, 2-diethylaminoethyl-2,2-diphenylvalerate-Hcl]
- protective effect by route of administration ([13]; oral vs ip administration of the pre-treatment agent): only occurred upon oral administration
- protection from toxicity induced by B10 [13]: lessened toxicity
